From PubChem BioAssay (NCI)
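Exposure lasted 48 hours, with cells grown in 96-well plates and compounds tested at five concentrations. GI50: concentration for 50% inhibition of growth. At the TGI there is no net growth.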

Assays:
Test in all cases: inhibition of tumour cell growth, NCI panel, 48 h
[1] = test system: NCI/ADR-RES ovarian
[2] = test system: MDA-MB-435
[3] = test system: DU-145 prostate
[4] = test system: OVCAR-5 ovarian
[5] = test system: IGROV1 ovarian
[6] = test system: SR leukemia
[7] = test system: SF-295 CNS
[8] = test system: MALME-3M melanoma
[9] = test system: TK-10 renal
[10] = test system: CAKI-1 renal
[11] = test system: HOP-92 NSCLC
[12] = test system: 786-0 renal
[13] = test system: COLO 205 colon
[14] = test system: MDA-MB-231 breast
[15] = test system: SF-268 CNS
[16] = test system: KM12 colon
[17] = test system: BT-549 breast
[18] = test system: CCRF-CEM leukemia
[19] = test system: M14 melanoma
[20] = test system: LOX IMVI melanoma
[21] = test system: MDA-N
[22] = test system: NCI-H522 lung
[23] = test system: MOLT-4 leukemia
[24] = test system: SW-620 colon
[25] = test system: UACC-62 melanoma
[26] = test system: SN12C renal
[27] = test system: SK-OV-3 ovarian
[28] = test system: SK-MEL-5 melanoma
[29] = test system: ACHN renal
[30] = test system: OVCAR-8 ovarian
[31] = test system: HCC-2998 colon
[32] = test system: RXF 393 renal
[33] = test system: UO-31 renal
[34] = test system: HOP-62 NSCLC
[35] = test system: NCI-H460 lung
[36] = test system: K-562 leukemia
[37] = test system: RPMI-8226 leukemia
[38] = test system: EKVX NSCLC
[39] = test system: HCT-15 colon
[40] = test system: OVCAR-4 ovarian
[41] = test system: NCI-H23 lung
[42] = test system: PC-3 prostate
[43] = test system: A549 NSCLC
[44] = test system: OVCAR-3 ovarian
[45] = test system: MCF7 breast
[46] = test system: A498 renal
[47] = test system: SK-MEL-28 melanoma
[48] = test system: U251 CNS
[49] = test system: SNB-19 CNS
[50] = test system: HCT-116 colon
[51] = test system: SK-MEL-2 melanoma
[52] = test system: UACC-257 melanoma
[53] = test system: HL-60(TB) leukemia
[54] = test system: SNB-75 CNS
[55] = test system: HT29 colon
[56] = test system: NCI-H226 lung
[57] = test system: HS 578T breast
[58] = test system: SF-539 CNS
[59] = test system: T-47D breast

## OCCc1ccsc1-c1sc(-c2cc(CCO)c(-c3sccc3CCO)s2)cc1CCO
[1]
  TGI: 38.5 µM
[2]
  TGI: 41.1 µM
[3]
  TGI: 32.9 µM
[4]
  TGI: 32.4 µM
[5]
  TGI: 29.5 µM
[6]
  TGI: > 100 µM
[7]
  TGI: 30.3 µM
[8]
  TGI: 23.7 µM
[9]
  TGI: 44 µM
[10]
  TGI: 44.3 µM
[11]
  TGI: 32.6 µM
[12]
  TGI: 29 µM
[13]
  TGI: 31 µM
[14]
  TGI: 48.5 µM
[15]
  TGI: 14 µM
[16]
  TGI: 11.5 µM
[17]
  TGI: 20.3 µM
[18]
  TGI: > 100 µM
[19]
  TGI: 23.7 µM
[20]
  TGI: 72.3 µM
[21]
  TGI: 63.5 µM
[22]
  TGI: 25.7 µM
[23]
  TGI: > 100 µM
[24]
  TGI: > 100 µM
[25]
  TGI: 25.4 µM
[26]
  TGI: 63.1 µM
[27]
  TGI: 35.8 µM
[28]
  TGI: 52.9 µM
[29]
  TGI: 35.9 µM
[30]
  TGI: 29.5 µM
[31]
  TGI: 30.2 µM
[32]
  TGI: 9.05 µM
[33]
  TGI: 31.4 µM
[34]
  TGI: 27.6 µM
[35]
  TGI: 32.5 µM
[36]
  TGI: > 100 µM
[37]
  TGI: > 100 µM
[38]
  TGI: 32.4 µM
[39]
  TGI: 40.5 µM
[40]
  TGI: 34 µM
[41]
  TGI: 41 µM
[42]
  TGI: 24.1 µM
[43]
  TGI: > 100 µM
[44]
  TGI: 32.5 µM
[45]
  TGI: 31 µM
[46]
  TGI: 40.3 µM
[47]
  TGI: 41.4 µM
[48]
  TGI: 49 µM
[49]
  TGI: 36.5 µM
[50]
  TGI: 43.8 µM
[51]
  TGI: 29.5 µM
[52]
  TGI: 34.4 µM

## CCOP(=O)(OCC)C(c1ccc(F)cc1)N(C(=O)NC(F)(F)F)c1ccc(OC)cc1 (configuration not stated)
[1]
  TGI: > 100 µM
[2]
  TGI: > 100 µM
[3]
  TGI: > 100 µM
[53]
  TGI: > 100 µM
[4]
  TGI: > 100 µM
[5]
  TGI: > 100 µM
[6]
  TGI: > 100 µM
[7]
  TGI: > 100 µM
[8]
  TGI: > 100 µM
[9]
  TGI: > 100 µM
[10]
  TGI: > 100 µM
[12]
  TGI: > 100 µM
[13]
  TGI: > 100 µM
[14]
  TGI: > 100 µM
[15]
  TGI: > 100 µM
[16]
  TGI: > 100 µM
[18]
  TGI: > 100 µM
[19]
  TGI: > 100 µM
[20]
  TGI: > 100 µM
[21]
  TGI: > 100 µM
[54]
  TGI: > 100 µM
[22]
  TGI: > 100 µM
[23]
  TGI: > 100 µM
[24]
  TGI: > 100 µM
[26]
  TGI: > 100 µM
[28]
  TGI: > 100 µM
[29]
  TGI: > 100 µM
[30]
  TGI: > 100 µM
[31]
  TGI: > 100 µM
[32]
  TGI: > 100 µM
[33]
  TGI: > 100 µM
[55]
  TGI: > 100 µM
[34]
  TGI: > 100 µM
[35]
  TGI: > 100 µM
[36]
  TGI: > 100 µM
[37]
  TGI: > 100 µM
[56]
  TGI: > 100 µM
[38]
  TGI: > 100 µM
[39]
  TGI: > 100 µM
[41]
  TGI: > 100 µM
[57]
  TGI: > 100 µM
[43]
  TGI: > 100 µM
[44]
  TGI: > 100 µM
[45]
  TGI: > 100 µM
[47]
  TGI: > 100 µM
[48]
  TGI: > 100 µM
[49]
  TGI: > 100 µM
[50]
  TGI: > 100 µM
[58]
  TGI: > 100 µM
[52]
  TGI: > 100 µM

## Cc1cc(I)cc(CN(C)CCCN2CCCCC2)c1O
[1]
  GI50: 21.9 µM
  TGI: 59 µM
[2]
  GI50: 15 µM
  TGI: 33.4 µM
[3]
  GI50: 16.7 µM
  TGI: 33.8 µM
[53]
  GI50: 12.7 µM
  TGI: 29.7 µM
[4]
  GI50: 21 µM
  TGI: 59.4 µM
[5]
  GI50: 15.4 µM
  TGI: 32.5 µM
[6]
  TGI: 3.57 µM
[7]
  GI50: 2.39 µM
  TGI: 12.9 µM
[8]
  GI50: 21.7 µM
  TGI: 42.3 µM
[9]
  GI50: 19.8 µM
  TGI: 37.7 µM
[10]
  GI50: 17 µM
  TGI: 35.3 µM
[11]
  GI50: 11.6 µM
  TGI: 38.6 µM
[12]
  GI50: 13.7 µM
  TGI: 26.5 µM
[13]
  GI50: 13.7 µM
  TGI: 27.3 µM
[14]
  GI50: 18.4 µM
  TGI: 48.6 µM
[15]
  GI50: 13.1 µM
  TGI: 27.5 µM
[16]
  GI50: 16.5 µM
  TGI: 39.6 µM
[17]
  GI50: 10.7 µM
  TGI: 22.9 µM
[18]
  GI50: 18.6 µM
  TGI: 43.4 µM
[19]
  GI50: 14.4 µM
  TGI: 27.5 µM
[20]
  GI50: 13.5 µM
  TGI: 28.5 µM
[54]
  GI50: 16.6 µM
  TGI: 34.8 µM
[22]
  GI50: 16.7 µM
  TGI: 31.4 µM
[23]
  GI50: 3.2 µM
  TGI: 13.4 µM
[24]
  GI50: 14.6 µM
  TGI: 27.7 µM
[25]
  GI50: 14.2 µM
  TGI: 41.6 µM
[59]
  GI50: 15.8 µM
  TGI: 43 µM
[26]
  GI50: 49.9 µM
  TGI: > 100 µM
[27]
  GI50: 15.7 µM
  TGI: 31.6 µM
[28]
  GI50: 8.5 µM
  TGI: 20.7 µM
[29]
  GI50: 17.3 µM
  TGI: 37.3 µM
[30]
  GI50: 26.9 µM
  TGI: > 100 µM
[31]
  GI50: 14 µM
  TGI: 27.2 µM
[32]
  GI50: 11.7 µM
  TGI: 26.6 µM
[33]
  GI50: 11.8 µM
  TGI: 31.1 µM
[55]
  GI50: 4.46 µM
  TGI: 16.1 µM
[34]
  GI50: 13.7 µM
  TGI: 27 µM
[35]
  GI50: 12.5 µM
  TGI: 26.2 µM
[36]
  GI50: 11.1 µM
  TGI: 23.1 µM
[37]
  GI50: 11.8 µM
  TGI: 29.9 µM
[56]
  GI50: 28.1 µM
  TGI: > 100 µM
[38]
  GI50: 16.3 µM
  TGI: 37.3 µM
[39]
  GI50: 10.3 µM
  TGI: 30.7 µM
[40]
  GI50: 32.7 µM
  TGI: > 100 µM
[41]
  GI50: 19 µM
  TGI: 56.5 µM
[42]
  GI50: 15.4 µM
  TGI: 32.9 µM
[57]
  GI50: 9.75 µM
  TGI: 75.6 µM
[43]
  GI50: 16.8 µM
  TGI: 35.7 µM
[44]
  GI50: 15.9 µM
  TGI: 33.1 µM
[45]
  GI50: 16.7 µM
  TGI: 35.9 µM
[46]
  GI50: 19.8 µM
  TGI: 38.3 µM
[47]
  GI50: 15.9 µM
  TGI: 31.7 µM
[48]
  GI50: 15.7 µM
  TGI: 33.4 µM
[49]
  GI50: 17.4 µM
  TGI: 40.2 µM
[50]
  GI50: 9.24 µM
  TGI: 21.3 µM
[58]
  GI50: 13.7 µM
  TGI: 26.9 µM
[51]
  GI50: 18.4 µM
  TGI: 37 µM
[52]
  GI50: 16.4 µM
  TGI: 31.9 µM
